{
  "source": "patent US20260027068A1",
  "about": "“METHODS OF ADM[…]-KETAMINE” (Perception Neuroscience, Inc., priority 2022, published 2026)",
  "key": {"[1]": {"conditions": "in vivo; cited from earlier work"}, "[2]": {"test_system": "phencyclidine site of the N-methyl-D-aspartate (NMDA) receptor", "conditions": "compared with racemic ketamine or S(+)-ketamine; cited from earlier work"}, "[3]": {"test_system": "rodents", "conditions": "10 mg/kg; cited from earlier work"}, "[4]": {"test_system": "sigma receptor", "conditions": "cited from earlier work"}, "[5]": {"test_system": "mouse model of depression", "conditions": "cited from earlier work"}, "[6]": {"test_system": "CYP3A4", "assay": "In vitro CYP induction"}},
  "data": [
    {"smiles": "CN[C@@]1(c2ccccc2Cl)CCCCC1=O.Cl", "note": "[R(−)-ketamine, (2R)-2-(2-chlorophenyl)-2-(methylamino)cyclohexan-1-one]", "values": [
      {"measurement": "Side effects (hyperlocomotion, prepulse inhibition deficit, drug dependence)", "setting": "[1]", "result": "did not"},
      {"measurement": "Lower affinity to the NMDA receptor", "setting": "[2]", "result": 4, "unit": "fold"},
      {"measurement": "Antidepressant effect compared with S(+)-ketamine", "setting": "[3]", "result": "longer acting and more potent effects than S(+)-ketamine"},
      {"measurement": "Higher affinity to the sigma receptor compared with S(+)-ketamine", "setting": "[4]", "result": 15, "unit": "fold"},
      {"measurement": "Antidepressant effects on depression-like symptoms", "setting": "[5]", "result": "more potent antidepressant effects on the depression-like symptoms when compared to S(+)-ketamine"},
      {"measurement": "CYP3A4 induction", "setting": "[6]", "result": "inducer"}
    ]}
  ]
}
